“And” between values parts separate entries of the source, which are not always exact repeats. Equal values may be shown once.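 All cell lines were grown in 96-well plates and treated with compound for 48 hours. GI50 marks 50% less growth. At the TGI there is no net growth.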
What was measured:
Experiment in all cases: inhibition of tumour cell growth, NCI panel, 48 h
[1] = tested on: SN12C renal
[2] = tested on: COLO 205 colon
[3] = tested on: SNB-19 CNS
[4] = tested on: KM12 colon
[5] = tested on: K-562 leukemia
[6] = tested on: SK-OV-3 ovarian
[7] = tested on: SF-295 CNS
[8] = tested on: SR leukemia
[9] = tested on: OVCAR-8 ovarian
[10] = tested on: OVCAR-4 ovarian

Structure (SMILES) | GI50 [1] | TGI [1] | GI50 [2] | TGI [2] | GI50 [3] | TGI [3] | GI50 [4] | TGI [4] | GI50 [5] | TGI [5] | GI50 [6] | TGI [6] | GI50 [7] | TGI [7] | GI50 [8] | TGI [8] | GI50 [9] | TGI [9] | GI50 [10] | TGI [10]
O=C(Nc1cccc(C(F)(F)F)c1)Nc1ccc(OCc2nnc(-c3ccccc3)o2)c(F)c1 | 9.36 µM | 46.1 µM | 2.47 µM | 10.6 µM | 4.4 µM | 35.5 µM | 2.43 µM | 12.8 µM | 5.12 µM | 47.2 µM | 5.57 µM | 27.3 µM | 2.7 µM | 14.1 µM | 2.23 µM | 9.65 µM | 5.19 µM | 32.1 µM | 4 µM | 30.1 µM
Cn1c(=O)c(-c2c(Cl)cccc2Cl)cc2cnc(Nc3ccc(N4CCOCC4)cc3)nc21 | 0.129 µM | 4.65 µM | < 0.0125 µM | 0.477 µM | 0.561 µM | > 22.6 µM | 1.38 µM | 5.09 µM | < 0.01 µM | 0.0538 µM | < 0.01 µM | > 100 µM | 0.2 µM | > 100 µM | 0.14 µM | 0.471 µM | 1.09 µM | > 100 µM | 0.404 µM | > 100 µM
COC(=O)N/N=C(\c1nc2ccc(Cl)cc2[nH]c1=O)C(O)c1ccc([N+](=O)[O-])cc1 (stereo not given) |  | > 100 µM |  | > 100 µM |  | > 100 µM |  | > 100 µM |  | > 100 µM |  | > 100 µM |  | > 100 µM |  | > 100 µM |  | > 100 µM |  | > 100 µM
O=C1OC(c2ccccc2)=N/C1=C\c1ccc(N(CCCl)CCCl)cc1 |  | > 100 µM |  | > 100 µM |  | > 100 µM |  | > 100 µM |  | > 100 µM |  | > 100 µM |  | > 100 µM |  | > 69.7 µM |  | > 100 µM |  | > 100 µM
O=C1NC2(CCCCC2)C2=C1CCCCC2 |  | > 100 µM |  | > 100 µM |  | > 100 µM |  | > 100 µM |  | > 100 µM |  | > 100 µM |  | > 100 µM |  | > 100 µM |  | > 100 µM |  | > 100 µM
Cc1c(-c2ccc(N3CCc4cccc(C(=O)Nc5nc6ccccc6s5)c4C3)nc2C(=O)O)cnn1CC12CC3CC(CC(C3)C1)C2 | 6.93 µM | 29.8 µM | 0.63 µM | 10.9 µM | 4.37 µM | 19.6 µM | 4.97 µM | 20.6 µM | 7.51 µM | > 100 µM | 6.99 µM | 21.3 µM | 3.53 µM | 11.6 µM | 12.8 µM | > 57.4 µM | 7.49 µM | 33 µM | 6.72 µM | 33.2 µM
Cn1c(=O)c(Oc2ccc(F)cc2F)cc2cnc(NC3CCC(O)CC3)nc21 (stereo not given) | > 25 µM | > 25 µM | > 25 µM | > 25 µM | > 25 µM | > 25 µM | > 25 µM | > 25 µM | > 25 µM | > 25 µM | > 25 µM | > 25 µM | > 25 µM | > 25 µM | > 25 µM | > 25 µM | > 25 µM | > 25 µM | > 25 µM | > 25 µM
Cc1c(N)nc(C2CC(=O)N2CC(N)C(N)=O)nc1C(=O)NC(C(=O)NC(C)C(O)C(C)C(=O)NC(C(=O)NCCc1nc(-c2nc(C(=O)NCCNCC(C)O)cs2)cs1)C(C)O)C(OC1OC(CO)C(O)C(O)C1OC1OC(CO)C(O)C(OC(N)=O)C1O)c1cnc[nH]1 (stereo not given) | 5.33 µM | 36.4 µM and 27 µM | 33.6 µM | 50 µM and 36.6 µM | 13.6 µM | 50 µM and > 100 µM | > 50 µM | > 100 µM | 35.9 µM | 50 µM and > 100 µM | 10.6 µM | 50 µM and > 32.9 µM | 0.46 µM | 12.1 µM and 15.7 µM | 0.005 µM | 50 µM | 6.97 µM | 50 µM and > 100 µM | 10.7 µM | 50 µM and > 100 µM
CCC(=C(c1ccc(OCCN(CC)CC)cc1)c1ccc(OCCN(CC)CC)cc1)c1ccc(Cl)cc1 | 0.606 µM | 1.24 µM | 0.631 µM | 1.32 µM | 0.584 µM | 1.09 µM | 0.611 µM | 1.18 µM | 0.156 µM | 0.898 µM | 0.594 µM | 1.16 µM | 0.615 µM | 1.19 µM | 0.249 µM | 0.981 µM | 0.685 µM | 1.51 µM | 0.714 µM | 1.66 µM
Cc1c(C(=O)C/C(=N/NC(=O)CC#N)C(N)=O)[n+](=O)c2ccccc2n1[O-] |  | 97.7 µM |  | > 100 µM |  | > 100 µM |  | > 100 µM |  | > 100 µM |  | > 100 µM |  | > 100 µM |  | > 100 µM |  | > 100 µM |  | > 100 µM
Nc1ccc2ncc(Nc3ccc(Cl)c(Cl)c3)nc2c1 |  | > 100 µM |  | 32.9 µM |  | 81.4 µM |  | > 100 µM |  | > 100 µM |  | > 100 µM |  | 49.9 µM |  | > 100 µM |  | 83.3 µM |  | > 100 µM

Reference: PubChem BioAssay (NCI)
